In doi:10.1101/2025.09.30.679521v1, “Crystallographic characterisation and development of bi-substrate inhibitors of coronavirus nsp14 methyltransferase” (biorxiv, 2025):
≈ marks a conversion by molar mass, not a printed value. Read-outs that look alike come from different tables or passages of the source.

How the values were obtained:
physchem [1] = experiment: physchem
HCoV-NL63 nsp14 = HCoV-NL63 nsp14 (Human coronavirus NL63, UniProt P0C6X5); experiment: RapidFire MS methyltransferase assay; type: biochemical
Chain of HCoV-NL63 nsp14 (P0C6X5 5568-6085): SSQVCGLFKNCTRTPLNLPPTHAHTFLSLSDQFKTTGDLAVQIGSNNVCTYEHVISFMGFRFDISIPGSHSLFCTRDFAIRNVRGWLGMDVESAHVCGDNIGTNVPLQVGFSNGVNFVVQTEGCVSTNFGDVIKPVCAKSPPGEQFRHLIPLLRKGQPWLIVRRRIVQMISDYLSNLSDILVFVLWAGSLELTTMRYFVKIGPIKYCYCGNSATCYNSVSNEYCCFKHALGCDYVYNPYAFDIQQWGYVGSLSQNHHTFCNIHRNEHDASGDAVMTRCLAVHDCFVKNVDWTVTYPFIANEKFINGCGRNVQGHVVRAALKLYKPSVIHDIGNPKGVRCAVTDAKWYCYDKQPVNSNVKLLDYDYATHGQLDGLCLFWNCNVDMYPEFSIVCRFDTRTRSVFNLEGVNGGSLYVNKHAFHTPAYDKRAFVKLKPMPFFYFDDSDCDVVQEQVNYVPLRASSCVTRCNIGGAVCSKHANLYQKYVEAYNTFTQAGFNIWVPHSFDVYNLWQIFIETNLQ
Text: RapidFire MS methyltransferase assay on HCoV-NL63 nsp14

human RNMT [2] = molecular target: T1, human RNMT (Homo sapiens, UniProt O43148); experiment: RNMT methyltransferase assay (Gray et al.); type: biochemical
T1 sequence (O43148 whole entry): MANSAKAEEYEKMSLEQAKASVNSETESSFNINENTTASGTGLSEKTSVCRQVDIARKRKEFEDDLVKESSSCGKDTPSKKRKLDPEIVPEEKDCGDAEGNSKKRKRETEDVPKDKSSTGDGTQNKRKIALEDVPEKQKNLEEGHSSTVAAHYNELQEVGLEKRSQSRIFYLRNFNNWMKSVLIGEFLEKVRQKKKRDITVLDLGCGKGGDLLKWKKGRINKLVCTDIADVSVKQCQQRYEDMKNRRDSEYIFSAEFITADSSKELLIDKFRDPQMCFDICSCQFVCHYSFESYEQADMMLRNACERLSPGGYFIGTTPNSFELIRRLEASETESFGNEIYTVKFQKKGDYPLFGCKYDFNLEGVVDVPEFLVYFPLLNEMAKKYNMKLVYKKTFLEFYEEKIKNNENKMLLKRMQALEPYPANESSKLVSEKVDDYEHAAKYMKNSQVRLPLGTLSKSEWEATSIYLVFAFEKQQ
Text: RNMT methyltransferase assay (Gray et al.) on human RNMT

HCoV-229E nsp14 = molecular target: T2, HCoV-229E nsp14 (Human coronavirus 229E, UniProt P0C6X1); experiment: RapidFire MS methyltransferase assay; type: biochemical
T2 construct: gene rep
T2 sequence (P0C6X1 5593-6110): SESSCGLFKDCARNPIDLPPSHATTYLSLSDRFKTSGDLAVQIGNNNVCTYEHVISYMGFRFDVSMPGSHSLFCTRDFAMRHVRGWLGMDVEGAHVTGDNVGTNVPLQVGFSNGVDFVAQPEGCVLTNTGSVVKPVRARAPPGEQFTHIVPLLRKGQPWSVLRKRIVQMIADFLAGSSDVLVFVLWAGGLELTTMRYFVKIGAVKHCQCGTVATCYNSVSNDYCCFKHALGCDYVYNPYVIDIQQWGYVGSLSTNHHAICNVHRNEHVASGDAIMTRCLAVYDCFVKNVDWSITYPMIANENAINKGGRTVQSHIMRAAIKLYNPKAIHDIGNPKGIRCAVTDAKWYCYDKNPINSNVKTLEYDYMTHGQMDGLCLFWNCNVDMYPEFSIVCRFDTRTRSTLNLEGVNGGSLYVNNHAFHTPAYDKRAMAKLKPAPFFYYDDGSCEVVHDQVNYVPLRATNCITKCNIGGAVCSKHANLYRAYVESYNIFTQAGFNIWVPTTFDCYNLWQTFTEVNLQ
Text: RapidFire MS methyltransferase assay on HCoV-229E nsp14

SARS-CoV-2 nsp14 = molecular target: T3, SARS-CoV-2 nsp14 (Severe acute respiratory syndrome coronavirus 2, UniProt P0DTD1); experiment: RapidFire MS methyltransferase assay; type: biochemical
T3 construct: gene rep
Text: RapidFire MS methyltransferase assay on SARS-CoV-2 nsp14

in vitro [3] = experiment: in vitro; parameters: mouse liver microsomal stability; conditions: liver microsomes; Mouse liver microsomes; read-out: Mouse liver Mic T1/2 / min
Text: We initiated our structure-activity relationship (SAR) studies by investigating various replacements for the benzothiazole group, compounds 2-17, Table 1. […] Relatively flat SAR is observed across this subset of compounds, indeed a 6,5 or 6,6 aromatic system with the appropriate connectivity as compound 1 display relatively similar potencies. […] In general, the mouse microsomal clearance was rather low for this set of molecules, with no significant instabilities introduced, with perhaps the exception of compound 4. With no significant advantages in either potency or mouse microsomal clearance (Table S2) identified for this subset, the benzothiazole was taken forward into subsequent SAR studies. Table 2. Enzymatic inhibition against SARS-CoV-2 nsp14, human RNMT, CHI-logD and mouse microsomal stability.

physchem [4] = experiment: physchem; remark: listed apart in the source
in vitro [5] = experiment: in vitro; parameters: MDCK permeability; conditions: dog, MDCK
physchem [6] = experiment: physchem; remark: listed apart in the source
physchem [7] = experiment: physchem; parameters: solubility
Text: Table 5. Selected compounds with cellular potency. The apparent EC50 values in the cytopathic effect assay are shown, along with the toxicity effect CC50

SARS-CoV-2 [8] = experiment: microbe, parasite or virus in culture; parameters: species or system Vero E6; antiviral cytopathic effect assay with SARS-CoV-2 in Vero E6 cells; conditions: Severe acute respiratory syndrome coronavirus 2, Vero C1008; read-out: CPE assay EC50 /
in vitro [9] = experiment: in vitro; parameters: cytotoxicity alongside the cytopathic effect assay in Vero E6 cells; conditions: african green monkey, vero e6 cells; read-out: CPE assay CC50 /
Text: This may be due to the increased rigidity of the alkene linkage and a lower entropic penalty upon binding. As a matched pair to the previously reported compounds 32 and 34, we selected potent and stable compound 33 and 40, with the same change of adenosine base, Base A, to Base B and measure the antiviral activity. […] One potential reason for this disparity may be attributed to the differing experimental conditions used in the two assays and requires further investigation. […] Therefore, consistent with the body of the literature, we observed no significant antiviral activity against SARS-CoV-2 for this class of compounds. We hypothesise that as the compounds bind in both the SAM and the RNA pocket of nsp14 and are therefore competitive with both substrates, in the cellular context there is a significant competition with intracellular SAM/SAH and the viral RNA, which is likely present at a higher concentration than used in the biochemical assay. The concentration of SAM used in the SARS-CoV-2 nsp14 assay is 1.0 µM and although measurements of SAM or SAH concentrations in Vero E6 cells haven’t been reported, others have reported intracellular concentrations of SAM of 354 µM in other cell lines.[30] The concentration of the viral RNA substrate in cellulo and increased effective concentrations from the proximity of other nsp proteins involved in viral RNA production may also play a role that is further not captured in the bioche Table 5. Selected compounds with cellular potency. The apparent EC50 values in the cytopathic effect assay are shown, along with the toxicity effect CC50

human RNMT [10] = molecular target: T1, human RNMT; experiment: biochemical; parameters: human RNMT methyltransferase inhibition
SARS-CoV-2 [11] = experiment: microbe, parasite or virus in culture; parameters: species or system Vero E6; antiviral cytopathic effect assay with SARS-CoV-2 in Vero E6 cells; conditions: Severe acute respiratory syndrome coronavirus 2, Vero C1008; read-out: CPE assay EC50 /; remark: listed apart in the source
[12] = SAM and RNA cap substrate at KM (SAM 1.0 µM), read-out: IC50

O[C@@H]1[C@H](O)[C@@H](CSc2nc3ccccc3s2)O[C@H]1n1cnc2c(NC3COC3)ncnc21 [compound 22]
logD (physchem [1]): 1.4

Nc1ncnc2c1ncn2[C@@H]1O[C@H](CSc2nc3ccccc3s2)[C@@H](O)[C@H]1O [compound 1]
IC50 (HCoV-NL63 nsp14; read-out: IC50): 190 ± 30 nM
IC50 (human RNMT [2]): > 100000 nM
IC50 (HCoV-229E nsp14; read-out: IC50): 310 ± 8 nM
IC50 (SARS-CoV-2 nsp14; read-out: IC50): 420 ± 300 nM
half-life (in vitro [3]): > 30 min
logD (physchem [4]): 1.2

Cc1ccc2nc(SC[C@H]3O[C@@H](n4cnc5c(N)ncnc54)[C@H](O)[C@@H]3O)sc2c1 [compound 2]
IC50 (HCoV-NL63 nsp14): 110 ± 20 nM
IC50 (human RNMT [2]): > 100000 nM
IC50 (HCoV-229E nsp14): 410 ± 80 nM
IC50 (SARS-CoV-2 nsp14): 260 ± 70 nM
half-life (in vitro [3]): > 30 min
logD (physchem [4]): 1.6

Nc1ncnn2c([C@@H]3O[C@H](/C=C/c4nc5ccccc5s4)[C@@H](O)[C@H]3O)ccc12 [compound 40]
IC50 (HCoV-NL63 nsp14; read-out: IC50): 13 ± 6 nM
IC50 (HCoV-229E nsp14; read-out: IC50): 49 ± 1 nM
IC50 (SARS-CoV-2 nsp14; read-out: IC50): 83 ± 100 nM
Papp (in vitro [5]): 12.8 ×10⁻⁶ cm/s
logD (physchem [6]): 1.5

Nc1ncnc2c1ncn2[C@@H]1O[C@H](CSc2ccc3ccccc3c2)[C@@H](O)[C@H]1O [compound 6]
IC50 (HCoV-NL63 nsp14; read-out: IC50): 230 ± 20 nM
IC50 (human RNMT [2]): > 100000 nM
IC50 (HCoV-229E nsp14; read-out: IC50): 470 ± 60 nM
IC50 (SARS-CoV-2 nsp14; read-out: IC50): 310 ± 120 nM
half-life (in vitro [3]): 26.9 min
logD (physchem [4]): 1.8

Nc1ncnc2c1ncn2[C@@H]1O[C@H](CNS(=O)(=O)c2ccc3ccccc3c2)[C@@H](O)[C@H]1O [compound 32, N-[[(2R,3S,4R,5R)-5-(6-Aminopurin-9-yl)-3,4-dihydroxy-tetrahydrofuran-2-yl]methyl]naphthalene-2-sulfonamide]
half-life (in vitro [3]): > 30 min
solubility (physchem [7]): 213 µM (≈ 97.2 µg/mL)
EC50 (SARS-CoV-2 [8]): > 100000 nM
CC50 (in vitro [9]): > 100000 nM

Nc1ncnc2c1ncn2[C@@H]1O[C@H](COc2nc3ccccc3s2)[C@@H](O)[C@H]1O [compound 23]
IC50 (SARS-CoV-2 nsp14; read-out: IC50): > 100000 nM
IC50 (human RNMT [10]): > 100000 nM
logD (physchem [1]): 0.5

Nc1ncnn2c([C@@H]3O[C@H](CNS(=O)(=O)c4ccc5ccccc5c4)[C@@H](O)[C@H]3O)ccc12 [compound 34, N-[[(2R,3S,4R,5S)-5-(4-Aminopyrrolo[2,1-f][1,2,4]triazin-7-yl)-3,4-dihydroxy-tetrahydrofuran-2-yl]methyl]naphthalene-2-sulfonamide]
half-life (in vitro [3]): 9.9 min
solubility (physchem [7]): 226 µM (≈ 103 µg/mL)
EC50 (SARS-CoV-2 [11]): 30000 nM
CC50 (in vitro [9]): > 100000 nM

CC(C)Nc1ncnc2c1ncn2[C@@H]1O[C@H](CSc2nc3ccccc3s2)[C@@H](O)[C@H]1O [compound 21]
IC50 (SARS-CoV-2 nsp14; read-out: IC50): > 100000 nM
IC50 (human RNMT [10]): > 100000 nM
logD (physchem [1]): 2.1

CCCCCCSC[C@H]1O[C@@H](n2cnc3c(N)ncnc32)[C@H](O)[C@@H]1O [compound 4]
IC50 (HCoV-NL63 nsp14): 3300 ± 300 nM
IC50 (human RNMT [2]): > 100000 nM
IC50 (HCoV-229E nsp14): 9000 ± 1400 nM
IC50 (SARS-CoV-2 nsp14): 6100 ± 1100 nM
half-life (in vitro [3]): 13.2 min
logD (physchem [4]): 2

CNc1ncnc2c1ncn2[C@@H]1O[C@H](CSc2nc3ccccc3s2)[C@@H](O)[C@H]1O [compound 18]
IC50 (SARS-CoV-2 nsp14; read-out: IC50): 2100 ± 200 nM
logD (physchem [1]): 1.3

Nc1ncnc2c1ncn2[C@@H]1O[C@H](CSc2ccc3ccccc3n2)[C@@H](O)[C@H]1O [compound 7]
IC50 (HCoV-NL63 nsp14; read-out: IC50): 240 ± 80 nM
IC50 (human RNMT [2]): > 100000 nM
IC50 (HCoV-229E nsp14; read-out: IC50): 550 ± 80 nM
IC50 (SARS-CoV-2 nsp14; read-out: IC50): 330 ± 90 nM
half-life (in vitro [3]): > 30 min
logD (physchem [4]): 1.3

OC1C(CSc2nc3ccccc3s2)OC(n2cnc3c(NC4CCCC4)ncnc32)C1O (centres unmarked) [compound 20]
IC50 (SARS-CoV-2 nsp14; [12]): > 100000 nM
logD (physchem [1]): 2.5

Nc1ncnc2c1ncn2[C@@H]1O[C@H](/C=C/c2nc3ccccc3s2)[C@@H](O)[C@H]1O [compound 33, (2R,3R,4S,5R)-2-(6-Aminopurin-9-yl)-5-[(E)-2-(1,3-benzothiazol-2-yl)vinyl]tetrahydrofuran-3,4-diol]
half-life (in vitro [3]): > 30 min
solubility (physchem [7]): 18.2 µM (≈ 7.22 µg/mL)
EC50 (SARS-CoV-2 [8]): 8700 nM
CC50 (in vitro [9]): 21000 nM

Cc1ccc2nc(SC[C@H]3O[C@@H](n4cnc5c(N)ncnc54)[C@H](O)[C@@H]3O)ccc2c1 [compound 8]
IC50 (HCoV-NL63 nsp14): 520 ± 10 nM
IC50 (human RNMT [2]): > 100000 nM
IC50 (HCoV-229E nsp14): 1900 ± 100 nM
IC50 (SARS-CoV-2 nsp14): 1100 ± 70 nM
half-life (in vitro [3]): > 30 min
logD (physchem [4]): 1.7

Nc1ncnc2c1ncn2[C@@H]1O[C@H](CSc2ccc3cccnc3c2)[C@@H](O)[C@H]1O [compound 10]
IC50 (HCoV-NL63 nsp14; read-out: IC50): 170 ± 40 nM
IC50 (human RNMT [2]): > 100000 nM
IC50 (HCoV-229E nsp14; read-out: IC50): 580 ± 100 nM
IC50 (SARS-CoV-2 nsp14; read-out: IC50): 360 ± 110 nM
half-life (in vitro [3]): > 30 min
logD (physchem [4]): 0.6

Nc1ncnc2c1ncn2[C@@H]1O[C@H](CCc2nc3ccccc3s2)[C@@H](O)[C@H]1O [compound 25]
IC50 (SARS-CoV-2 nsp14; read-out: IC50): 310 ± 70 nM
IC50 (human RNMT [10]): > 100000 nM
half-life (in vitro [3]): > 30 min
logD (physchem [1]): 1

Cc1ccc2ccc(SC[C@H]3O[C@@H](n4cnc5c(N)ncnc54)[C@H](O)[C@@H]3O)nc2c1 [compound 9]
IC50 (HCoV-NL63 nsp14): 500 ± 110 nM
IC50 (human RNMT [2]): 70500 nM
IC50 (HCoV-229E nsp14): 1400 ± 100 nM
IC50 (SARS-CoV-2 nsp14): 390 ± 60 nM
half-life (in vitro [3]): > 30 min
logD (physchem [4]): 1.7

CN(C)c1ncnc2c1ncn2[C@@H]1O[C@H](CSc2nc3ccccc3s2)[C@@H](O)[C@H]1O [compound 19]
IC50 (SARS-CoV-2 nsp14; [12]): > 100000 nM
logD (physchem [1]): 1.8

Nc1ncnc2c1ncn2[C@@H]1O[C@H](CNc2nc3ccccc3s2)[C@@H](O)[C@H]1O [compound 24]
IC50 (human RNMT [2]): 54600 nM
IC50 (SARS-CoV-2 nsp14; read-out: IC50): > 100000 nM
logD (physchem [1]): 0.7

Nc1ncnn2c([C@@H]3O[C@H](/C=C/c4nc5ccccc5s4)[C@@H](O)[C@H]3O)ccc12 [compound 40, (2S,3R,4S,5R)-2-(4-aminopyrrolo[2,1-f][1,2,4]triazin-7-yl)-5-[(E)-2-(1,3-benzothiazol-2-yl)vinyl]tetrahydrofuran-3,4-diol]
half-life (in vitro [3]): > 30 min
solubility (physchem [7]): 4.7 µM (≈ 1.86 µg/mL)
EC50 (SARS-CoV-2 [11]): > 10000 nM
CC50 (in vitro [9]): > 10000 nM
